Results on 80 molecules are retold here after the METLIN SMRT retention time set (Domingo-Almenara et al. 2019).

Each structure is given as a SMILES string.

This series is described as follows: gradient 5% acetonitrile 3 min, to 50% in 2 min, to 85% in 15 min, held 3 min, 100 µL/min. Conditions: column: Zorbax Extend-C18 2.1 x 50 mm; eluents: water / acetonitrile, 0.1% formic acid. The procedure, abridged:
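The system's dead and dwell volumes were 40 μL and 900 μL, with a Zorbax Extend-C18 column (2.1 × 50 mm, 1.8 μm) run at 100 μL/min in water and acetonitrile containing 0.1% formic acid each. Pure standards were analyzed in mixtures of ~100 molecules by HPLC–quadrupole time-of-flight mass spectrometry in positive and negative ionization mode. Retention time was assigned from computationally picked, manually inspected adduct peaks.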
`CCn1nccc1-c1cccc(-c2noc(-c3cccs3)n2)c1` displayed an RP-LC retention time of 1130 s.
Take `Cc1cc2[nH]c(C(=O)Nc3ccccc3F)c(CN3CCOCC3)c2s1`: the RP-LC retention time is 686 s.
`O=C(Nc1ccccc1)N1C[C@@H]2C(=O)N(CCc3ccccc3)C(=O)[C@@H]2C1` displayed an RP-LC retention time of 789 s.
In turn, `O=C(NCCc1ccccc1)c1ccc2c(c1)CCN2C(=O)C1CC1` yielded an RP-LC retention time of 814 s.
`Cc1ccc(NC(=O)Cn2ncc3c(c2=O)N(CC2CC2)C(=O)CS3)c(Cl)c1` displayed an RP-LC retention time of 846 s.
Molecule `CCC(C)NC(=O)c1cc2c(s1)CCN(C(=O)c1ccc(F)cc1)C2` (stereo not given) had an RP-LC retention time of 804 s.
The value for `O=c1n(Cc2ccccc2Cl)nc2c(S(=O)(=O)N3CCCC3)cccn12` was 853 s.
The molecule `Cc1cc(NC(=O)Cn2cnc(-c3ccc(Cl)cc3)cc2=O)no1` registered an RP-LC retention time of 735 s.
The value for `Cc1[nH]nc(-c2cc(S(=O)(=O)NCCc3ccccc3)c(C)s2)c1C` was 886 s; that for `O=C(Cn1c(=O)c(CCC(=O)NC2CC2)nc2ccccc21)Nc1cccc(Br)c1` was 781 s; that for `COC(=O)c1c(NCCN2CCCc3ccccc32)c2cccc(Cl)c2[nH]c1=O` was 955 s.
As for `CCCC(=O)Nc1ccc(-n2cnc(C(=O)N3CCN(c4ccccc4F)CC3)c2)nc1`, the RP-LC retention time came out at 788 s.
On to `CCOc1ncccc1C(=O)Nc1c(C)nc2sc(C)c(C)n2c1=O`, for which the RP-LC retention time stood at 723 s.
For `COc1ccccc1CCNC(=O)CSc1ccc(-c2cccs2)nn1`, the RP-LC retention time is 802 s.
`CCCn1cc(S(=O)(=O)Nc2cc(C)ccc2F)c2cccnc21` displayed an RP-LC retention time of 921 s.
Molecule `COC(=O)c1ccc(NC(=O)C(=O)NCCc2ccc(N3CCCC3)cc2)cc1` had an RP-LC retention time of 910 s.
The value for `O=S(=O)(c1cccc(Cl)c1)c1nnn2c1nc(N1CCCC1)c1sccc12` was 925 s.
As for `Cc1nc(-c2ccccc2)nc2c1CCC(=O)N2Cc1cccs1`, the RP-LC retention time is 1120 s.
Molecule `Cc1cc2c(cc1S(=O)(=O)N1CCCC1C(=O)Nc1ccc(C(C)C)cc1)OC(C)C(=O)N2` (stereo not given) gave an RP-LC retention time of 916 s.
In turn, `Cc1noc(C)c1CN1CCN(C(=O)Cn2c(=O)oc3ccccc32)CC1` yielded an RP-LC retention time of 550 s.
The molecule `Cc1ccc(NC2CC(=O)N(c3cccc([N+](=O)[O-])c3)C2=O)cc1` (stereo not given) had an RP-LC retention time of 882 s.
As for `COc1ccc(-c2noc(C3CCCN3C(=O)c3ccccc3OC)n2)cc1OC` (stereo not given), the RP-LC retention time was 834 s.
`O=C(Nc1ccc2c(c1)CCCN2S(=O)(=O)c1ccccc1)c1c(F)cccc1Cl`: the RP-LC retention time was determined as 1080 s.
With `O=C(Nc1ccc(F)c(Cl)c1)N1CCC(N2CCN(Cc3cccc(F)c3)C(=O)C2=O)CC1`, the RP-LC retention time came to 798 s.
As for `CC(=O)Nc1nnc(C2=COCCO2)o1`, the figure is 515 s.
The value for `Cc1ccc(CNC(=O)C(C)Oc2cc(C(F)(F)F)c3c(C)nn(C)c3n2)cc1` (stereo not given) was 1030 s.
Regarding `COc1ccc(C(=O)N2C[C@H](c3nc(-c4ccncc4)no3)[C@@H](C)C2)c(OC)c1`, the RP-LC retention time is 743 s.
`CCOC(=O)CNC(=O)N1CCCC1c1ccc(C)cc1` (stereo not given) showed an RP-LC retention time of 801 s.
Turning to `Cc1ccc2c(c1)Oc1ccccc1N=C2`, the RP-LC retention time was found to be 993 s.
For the molecule `Cc1cc(Cl)ccc1NC(=O)N1CCC(c2nc3ccncc3n2C(C)C)C1` (stereo not given), the RP-LC retention time is 648 s.
For the molecule `Cc1ccc(NC(=O)C2CCCN(c3ncnc4c3nc3n4CCCCC3)C2)nc1` (stereo not given), the RP-LC retention time came to 699 s.
On to `O=C(Nc1ccccc1Br)N1CCc2nc[nH]c2C1`, for which the RP-LC retention time was found to be 566 s.
`CC(C)(C)C(=O)NCc1cccnc1-c1ccccc1` returned an RP-LC retention time of 600 s.
Molecule `Cc1ccc2c(=O)c3c([nH]c2c1C)CCN(CC(=O)Nc1ccc(F)cc1F)C3` returned an RP-LC retention time of 615 s.
In turn, `CCCCNC(=O)C1CCC(=O)N(c2ccc(OC)cc2)C1c1ccc(OC)cc1` (stereo not given) had an RP-LC retention time of 756 s.
`CCCS(=O)(=O)c1nc2ccc(NS(=O)(=O)c3ccc(F)cc3F)cc2s1` gave an RP-LC retention time of 934 s.
As for `CNC(=O)c1nn(-c2ccc(F)c(F)c2)c(OC)cc1=O`, the figure is 651 s; as for `CCOc1ccc(N2CC(CNC(=O)Nc3cc(OC)c(OC)c(OC)c3)CC2=O)cc1` (stereo not given), 668 s.
In turn, `Cc1cc(C)nc(NS(=O)(=O)c2ccc(Nc3nc(-c4ccc(C(C)C)cc4)cs3)cc2)n1` yielded an RP-LC retention time of 1120 s.
The molecule `Cc1oc(C2CCN(S(=O)(=O)c3cccc(C#N)c3)CC2)nc1C(=O)N(C)C` displayed an RP-LC retention time of 751 s.
With `Cc1nn2c(S(=O)(=O)NCc3cccs3)c(C)nc2s1`, the RP-LC retention time is 704 s.
As for `CCNc1cc(N2CCCC(CCC(=O)NCc3cccc(F)c3)C2)ncn1` (stereo not given), the figure is 585 s.
On to `CN1C(=O)CCc2cc(NS(=O)(=O)c3cccc4nsnc34)ccc21`, for which the RP-LC retention time came to 716 s.
Regarding `Cc1nn2c(CNS(=O)(=O)Cc3cccc(F)c3)c(-c3ccccc3)nc2s1`, the RP-LC retention time was 935 s.
The value for `CN(C)S(=O)(=O)c1ccc(-c2nnc(C(=O)NCc3ccc(C(F)(F)F)cc3)o2)cc1` was 940 s; that for `O=C(CCn1nnc2cc(-c3noc(Cc4ccccc4Br)n3)ccc21)N1CCOCC1` was 860 s.
The molecule `CC1CCc2c(sc3nc(CCC(=O)N4CCC(C(N)=O)CC4)[nH]c(=O)c23)C1` (stereo not given) yielded an RP-LC retention time of 697 s.
As for `O=C(C1CCN(S(=O)(=O)c2ccc3[nH]c4c(c3c2)CCCCC4)CC1)N1CCCC1`, the figure is 906 s.
With `Cc1ccc(-c2nnc(-c3ccccc3)o2)cc1S(=O)(=O)N1CCCCCC1`, the RP-LC retention time came to 1200 s.
As for `CC1=C(c2ccc(C)cc2)S(=O)(=O)N=C1N1CCCN(C(=O)CC2CCCCC2)CC1`, the figure is 962 s; as for `CC(C)Cn1cc(CCNS(=O)(=O)c2ccc(Br)s2)c2cccnc21`, 995 s; as for `Nc1cc(C2CCN(S(=O)(=O)c3cccc(Br)c3)CC2)no1`, 824 s.
The molecule `COc1ccc(NC(=O)C2CCN(c3cc(N4CCCCC4)ncn3)CC2)cc1OC` showed an RP-LC retention time of 645 s.
As to `CCCn1c(-c2cccc(C(=O)NC(C)c3ccc(C)cc3C)c2)nc2cccnc21` (stereo not given), the RP-LC retention time was 955 s.
In turn, `COc1cccc(NC(=O)C2CC(=O)N(c3ccc4c(c3)CCN4C(=O)C3CCC3)C2)c1` (stereo not given) yielded an RP-LC retention time of 817 s.
`Cc1ccc(CN2CCN(C3CCN(C(=O)Nc4ccc5c(c4)OCO5)CC3)C2=O)cc1` had an RP-LC retention time of 841 s.
`COCCC(=O)N1CCCN(C2=NS(=O)(=O)C(c3ccccc3)=C2C)CC1`: the RP-LC retention time is 669 s.
Regarding `c1ccc(COCC2CCN(Cc3ccccc3)CC2)cc1`, the RP-LC retention time turned out to be 588 s.
The value for `Cc1ccccc1Cc1noc(-c2nc(-c3ccc4c(c3)OCO4)no2)n1` was 1190 s.
`O=C(c1csc(-c2cccnc2)n1)N1CCN(c2ncccn2)CC1` returned an RP-LC retention time of 648 s.
As to `CCOC(=O)c1noc2ncnc(Nc3cc(C)ccc3C)c12`, the RP-LC retention time is 1030 s.
For `CCn1nccc1C(=O)NC1CCN(c2cc(-c3ccccc3)[nH]n2)CC1`, the RP-LC retention time turned out to be 688 s.
For `CS(=O)(=O)Nc1ccc2nc(S(C)(=O)=O)sc2c1`, the RP-LC retention time was determined as 661 s.
`CC(Oc1ccccc1)C(=O)N1CCCn2nc(-c3cccs3)cc2C1` (stereo not given) returned an RP-LC retention time of 844 s.
In turn, `CCc1ccc2oc(C(=O)NCC(c3ccccc3OC)N(C)C)cc(=O)c2c1` (stereo not given) returned an RP-LC retention time of 659 s.
Regarding `Cc1ccc(C)c(N2CCN(c3ccnc(SCC(=O)NCc4ccc5c(c4)OCO5)n3)CC2)c1`, the RP-LC retention time stood at 859 s.
`COCC(=O)Nc1nc(-c2ccc3c(c2)NC(=O)C(C)O3)c(C)s1` (stereo not given) displayed an RP-LC retention time of 720 s.
As for `O=C(NCCN1CCCC1)C1CCN(c2nccnc2Sc2ccccc2)CC1`, the figure is 645 s; as for `COc1ccc(NC(=O)Cn2c(=O)n(-c3ccc(C)cc3)c(=O)c3c2cc(C)n3C)c(OC)c1`, 872 s.
The value for `CCC(=O)N(C1CCOCC1)C1CCN(Cc2cccc(Br)c2)CC1` was 635 s; that for `CCCS(=O)(=O)N1CCCCC1c1nc(-c2cccnc2)n[nH]1` (stereo not given) was 601 s.
With `Cc1ccc(/C=C/S(=O)(=O)N2CC(c3nc(-c4cccs4)no3)C2)cc1`, the RP-LC retention time stood at 996 s.
With `CCc1nn2c(CNS(=O)(=O)Cc3cc(F)cc(F)c3)c(-c3ccccc3)nc2s1`, the RP-LC retention time amounted to 1010 s.
In turn, `CCOc1ccc(-c2cn3ccn(-c4ccc(F)c(Cl)c4)c(=O)c3n2)cc1` displayed an RP-LC retention time of 918 s.
`CC(=O)Nc1nsc(N2CCC(C(=O)N3CCN(c4cccc(C)c4C)CC3)CC2)n1` registered an RP-LC retention time of 806 s.
As to `COc1cccc(NC(=O)Cc2c(C)nn(-c3nc(-c4ccc(Cl)cc4)cs3)c2C)c1`, the RP-LC retention time was determined as 1230 s.
The value for `Cc1cc(OCC(=O)NCc2ccco2)nc(N2CCCCCC2)n1` was 572 s; that for `CCC(C(=O)N1CCN(C)CC1)n1c2ccccc2c2cnn(C)c(=O)c21` (stereo not given) was 627 s; that for `Cc1nn(C)cc1C(=O)Nc1c(C)n(C)n(-c2ccccc2)c1=O` was 563 s.
As for `Cc1ccc(C#CC(C)(O)C(C)(C)C)cn1` (stereo not given), the RP-LC retention time turned out to be 722 s.
